The results in this text go back to article PMC9731865, “Gambogic acid and juglone inhibit RNase P through distinct mechanisms” (The Journal of Biological Chemistry, 2022).

The structures appear in SMILES notation.

What all share (format): biochemical
One assay has as its system T. maritima RNase P. The assay can be described thus: T. maritima RNase P inhibition (literature). Conditions: own PRORP IC50 against the cited T. maritima IC50 of 12.8 μM (ref 28).
In another assay the target is T1, human MRPP1/2/3 (Homo sapiens, UniProt O15091).
T1 construct: N-terminal truncation (residues 46–583, Δ45MRPP3); His6 (N, cleaved yes); made in house; host or cells: Rosetta (DE3) / Rosetta2 (DE3) E. coli
T1 sequence (O15091 46-583): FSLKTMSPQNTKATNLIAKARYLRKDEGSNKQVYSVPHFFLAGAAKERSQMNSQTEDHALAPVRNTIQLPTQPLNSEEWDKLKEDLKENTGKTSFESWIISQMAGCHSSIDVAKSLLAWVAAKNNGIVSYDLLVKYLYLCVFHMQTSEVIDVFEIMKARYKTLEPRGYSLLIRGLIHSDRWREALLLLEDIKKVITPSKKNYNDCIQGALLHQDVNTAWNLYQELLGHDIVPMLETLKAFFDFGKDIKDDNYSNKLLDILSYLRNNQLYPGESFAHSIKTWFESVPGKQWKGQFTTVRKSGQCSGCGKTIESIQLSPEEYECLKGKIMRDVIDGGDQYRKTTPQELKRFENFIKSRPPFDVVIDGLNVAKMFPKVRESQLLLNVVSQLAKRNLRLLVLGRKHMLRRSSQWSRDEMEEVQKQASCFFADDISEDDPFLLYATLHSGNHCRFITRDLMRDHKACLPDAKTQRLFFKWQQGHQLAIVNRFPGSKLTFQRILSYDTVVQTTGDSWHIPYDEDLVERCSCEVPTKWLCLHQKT
The assay can be described thus: Human mitochondrial RNase P (MRPP1/2/3) activity assay. The note with it: 30 min preincubation; 50 nM MRPP3, 500 nM MRPP1/2, 500 nM pre-tRNA, 37 °C; apparent IC50 for juglone. The method, then:
Figure 4 Gambogic acid and juglone inhibit A. thaliana PRORP1 (green), human MRPP1/2/3 (red), and B. subtilis RNase P (blue). Compounds gambogic acid (A) and juglone (B) were incubated with enzyme at double the reaction concentration for 30 min prior to the addition of an equal volume of substrate to initiate the reaction. PRORP1 reactions (shown in green) were performed with 0.3 nM PRORP1 and 800 nM pre-tRNA containing 40 nM Fl-pre-tRNA at 25 °C in 30 mM MOPS pH 7.8, 5 mM MgCl2, 100 mM NaCl, 1 mM TCEP, 500 nM (12 μg/ml) yeast tRNA, 5 mM spermidine, 6.65 μg/ml BSA, and 0.01% NP-40. MRPP1/2/3 reactions (shown in red) were performed using 50 nM MRPP3, 500 nM MRPP1/2, 500 nM pre-tRNA containing 40 nM Fl-pre-tRNA at 37 °C in 50 mM MOPS (pH 7.8), 1 mM TCEP, 4.5 mM MgCl2, and 100 mM NaCl. […]
The inhibition of human MRPP1/2/3 by gambogic acid and juglone was evaluated via dose–response using a quenched assay. Human MRPP1/2/3 activity was measured as a function of gambogic acid and juglone concentration using 50 nM MRPP3, 500 nM MRPP1/2, 500 nM pre-tRNA containing 40 nM Fl-pre-tRNA in 50 mM MOPS (pH 7.8), 4.5 mM MgCl2, 100 mM NaCl, and 1 mM TCEP (pH 7.5). […] Samples were separated by 20% Urea PAGE (Ultra Pure SequaGel), fluorescence signal was quantified using ImageJ, and the data were analyzed using Prism. […]

A further assay addresses T2, B. subtilis RNase P (Bacillus subtilis, UniProt P25814).
T2 construct: made in house
In words: B. subtilis RNase P activity assay (FP, real-time). The procedure: Figure 4 Gambogic acid and juglone inhibit A. thaliana PRORP1 (green), human MRPP1/2/3 (red), and B. subtilis RNase P (blue). Compounds gambogic acid (A) and juglone (B) were incubated with enzyme at double the reaction concentration for 30 min prior to the addition of an equal volume of substrate to initiate the reaction. PRORP1 reactions (shown in green) were performed with 0.3 nM PRORP1 and 800 nM pre-tRNA containing 40 nM Fl-pre-tRNA at 25 °C in 30 mM MOPS pH 7.8, 5 mM MgCl2, 100 mM NaCl, 1 mM TCEP, 500 nM (12 μg/ml) yeast tRNA, 5 mM spermidine, 6.65 μg/ml BSA, and 0.01% NP-40. MRPP1/2/3 reactions (shown in red) were performed using 50 nM MRPP3, 500 nM MRPP1/2, 500 nM pre-tRNA containing 40 nM Fl-pre-tRNA at 37 °C in 50 mM MOPS (pH 7.8), 1 mM TCEP, 4.5 mM MgCl2, and 100 mM NaCl. B. subtilis RNase P reactions (shown in blue) were performed using 20 nM RNase P and 500 nM pre-tRNA containing 40 nM Fl-pre-tRNA at 37 °C in 50 mM Tris, pH 7.2, 5 mM MgCl2, 100 mM KCl, 500 nM (12 μg/ml) yeast tRNA, 20 mM dithiothreitol (DTT), 10 mM spermidine, and 0.01% NP-40. Equation 1 was fit to each dataset.
The inhibition of B. subtilis RNase P activity by gambogic acid and juglone was measured using a previously developed FP assay in real-time.^25 Reactions were performed under multiple turnover conditions using 20 nM RNase P and 500 nM Fl-pre-tRNA^Asp in 50 mM Tris (pH 7.2), 5 mM MgCl2, 100 mM KCl, 500 nM (12 μg/ml) yeast tRNA^mix, 20 mM dithiothreitol, 10 mM spermidine, and 0.01% NP-40 at 37 °C.

T2 sequence (P25814 whole entry): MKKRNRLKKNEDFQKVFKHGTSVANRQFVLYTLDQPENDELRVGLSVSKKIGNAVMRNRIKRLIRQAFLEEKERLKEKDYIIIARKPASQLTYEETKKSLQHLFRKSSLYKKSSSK

One may read the IC50 as the concentration that gives 50% inhibition. For `O=C1C=CC(=O)c2c(O)cccc21` [juglone, 5-hydroxy-1,4-naphthalenedione], in the assay on T. maritima RNase P, the “times more potent against PRORP than T. maritima RNase P” value was “about 10 times”. The figures for the IC50 on human MRPP1/2/3 and on B. subtilis RNase P were 1.8 ± 0.04 µM and more than 500 µM, respectively.
On to `CC(C)=CCC[C@]1(C)C=Cc2c(O)c3c(c(CC=C(C)C)c2O1)O[C@]12C(=C[C@@H]4C[C@H]1C(C)(C)O[C@@]2(C/C=C(/C)C(=O)O)C4=O)C3=O` [gambogic acid], for which the IC50 on human MRPP1/2/3 came out at 0.26 ± 0.06 µM; against B. subtilis RNase P, 50 ± 2 µM.
